Reference: PubChem BioAssay (NCI)
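All cell lines were grown in 96-well plates and treated with compound for 48 hours. TGI: concentration producing complete growth inhibition.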

Columns and labels:
Test in all cases: growth of human tumour cells (NCI), 48 h
[1] = system: A549 NSCLC
[2] = system: OVCAR-4 ovarian
[3] = system: M14 melanoma
[4] = system: NCI-H460 lung
[5] = system: K-562 leukemia
[6] = system: NCI/ADR-RES ovarian
[7] = system: SF-295 CNS
[8] = system: SK-MEL-2 melanoma
[9] = system: UACC-257 melanoma
[10] = system: RXF 393 renal
[11] = system: NCI-H23 lung
[12] = system: RPMI-8226 leukemia
[13] = system: COLO 205 colon
[14] = system: SK-MEL-5 melanoma
[15] = system: DU-145 prostate
[16] = system: KM12 colon
[17] = system: NCI-H522 lung
[18] = system: SF-539 CNS
[19] = system: UO-31 renal
[20] = system: EKVX NSCLC
[21] = system: UACC-62 melanoma
[22] = system: HOP-62 NSCLC
[23] = system: SF-268 CNS
[24] = system: A498 renal
[25] = system: OVCAR-8 ovarian
[26] = system: PC-3 prostate
[27] = system: CAKI-1 renal
[28] = system: SR leukemia
[29] = system: SK-OV-3 ovarian
[30] = system: OVCAR-3 ovarian
[31] = system: SK-MEL-28 melanoma
[32] = system: MALME-3M melanoma
[33] = system: HT29 colon
[34] = system: MDA-N
[35] = system: ACHN renal
[36] = system: SN12C renal
[37] = system: MOLT-4 leukemia
[38] = system: T-47D breast
[39] = system: HCT-15 colon
[40] = system: SW-620 colon
[41] = system: HS 578T breast
[42] = system: HOP-92 NSCLC
[43] = system: U251 CNS
[44] = system: HCT-116 colon
[45] = system: MDA-MB-231 breast
[46] = system: MCF7 breast
[47] = system: LOX IMVI melanoma
[48] = system: HL-60(TB) leukemia
[49] = system: OVCAR-5 ovarian
[50] = system: NCI-H226 lung
[51] = system: SNB-19 CNS
[52] = system: TK-10 renal
[53] = system: HCC-2998 colon
[54] = system: MDA-MB-435
[55] = system: 786-0 renal
[56] = system: IGROV1 ovarian
[57] = system: CCRF-CEM leukemia
[58] = system: SNB-75 CNS

Measured: TGI

OC1CCCCCCCCCCC1SCCCCl (stereo unspecified)
> 100 µM: [1] | [2] | [3] | [4] | [5] | [6] | [7] | [8] | [9] | [10] | [11] | [12] | [13] | [14] | [15] | [16] | [17] | [18] | [19] | [20] | [21] | [22] | [23] | [24] | [25] | [26] | [27] | [28] | [29] | [30] | [31] | [32] | [33] | [34] | [35] | [36] | [37] | [38] | [39] | [40] | [41] | [42] | [43] | [44] | [45] | [46] | [47] | [48] | [49] | [50] | [51] | [52] | [53] | [54] | [55] | [56]

C=CCNC(=S)/N=C\C(C(=O)OCC)=C(/O)C(=O)OCC
> 100 µM: [1] | [2] | [3] | [4] | [5] | [6] | [7] | [8] | [9] | [10] | [11] | [12] | [13] | [14] | [15] | [16] | [17] | [18] | [19] | [20] | [21] | [22] | [23] | [25] | [26] | [27] | [28] | [29] | [30] | [31] | [32] | [33] | [34] | [35] | [36] | [37] | [38] | [39] | [40] | [41] | [43] | [44] | [45] | [46] | [47] | [48] | [49] | [57] | [58] | [50] | [51] | [53] | [54] | [55] | [56]
